In the supplement of paper PMC10011410:

How the values were obtained:
[1] = system: U-2 OS; assay: AUC of culture confluence over time (live-cell imaging) (AUC (confluence % x time)); higher = more confluent culture (less growth inhibition)
Experimental: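 Live-cell Incucyte imaging of U-2 OS cells in F-12K medium. Compounds were tested mostly at 5, 10 and 20 uM, and cells were imaged every 4 h for up to 60 h. Value is the area under the curve of phase-contrast confluence over time.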

[2] = system: U-2 OS; assay: cell painting activity score (Mahalanobis distance from DMSO wells); higher = stronger morphological phenotype; settings: 24 h
Experimental: (§1)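 Cell painting in U-2 OS cells (384-well, about 1,500 cells per well), compound exposure 24 h, usually six 2-fold concentrations from 20 to 0.625 uM (some compounds higher or lower). Relative cell count is the cell number per well relative to DMSO wells. Activity score is the Mahalanobis distance of the morphological profile from DMSO control wells. Mean of four technical replicate plates.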

[3] = system: U-2 OS; assay: relative cell count vs DMSO (cell painting) (fraction of DMSO control); higher = more cells remaining (less cytotoxic); settings: 24 h
Experimental: as §1

SMILES	AUC of culture confluence over time ([1]; 5 µM)	AUC of culture confluence over time ([1]; 10 µM)	AUC of culture confluence over time ([1]; 20 µM)	cell painting activity score ([2]; 0.625 µM)	cell painting activity score ([2]; 1.25 µM)	cell painting activity score ([2]; 2.5 µM)	cell painting activity score ([2]; 5 µM)	cell painting activity score ([2]; 10 µM)	cell painting activity score ([2]; 20 µM)	relative cell count ([3]; 0.625 µM)	relative cell count ([3]; 1.25 µM)	relative cell count ([3]; 2.5 µM)	relative cell count ([3]; 5 µM)	relative cell count ([3]; 10 µM)	relative cell count ([3]; 20 µM)
Oc1ccc(/C=C\c2cc(O)cc(O)c2)cc1	42.1	46.9	39.8	–	–	–	–	–	–	–	–	–	–	–	–
C[C@@]1(CO)[C@H](O)CC[C@@]2(C)[C@H]1CC[C@H]1C[C@@H]3C[C@@]12CC[C@]3(O)CO	30.1	29	28.6	13.5	12.7	14.8	14.8	16.2	15.8	0.886	0.788	0.683	0.659	0.621	0.622
Nc1nc(Cl)nc2c1ncn2[C@H]1C[C@H](O)[C@@H](CO)O1	30.2	34.5	33.3	12.6	13.3	13.6	14	14.8	15.2	0.638	0.588	0.583	0.555	0.55	0.539
C#CC[C@H](c1nc2cc(Cl)ccc2c(=O)n1Nc1ccccc1)N(CCCN)C(=O)c1cccc(Cl)c1F	26.8	13.2	10.4	4.72	4.61	4.15	10.3	12.9	26.1	0.999	0.984	0.903	0.401	0.198	0.0211
O=C(CBr)N1CC([N+](=O)[O-])([N+](=O)[O-])C1	50	49.9	42.4	6.87	7.38	11.3	10.6	11.8	11.3	0.992	1.02	0.919	0.891	0.972	0.873
C[C@@H]1C[C@@H]([C@H](O)CC2CC(=O)NC(=O)C2)C(=O)[C@@H](C)C1	21	19.4	20.1	9.38	9.5	11.4	11.5	12.8	14.2	0.783	0.651	0.576	0.534	0.475	0.479
COC1=C2C[C@@H](C)C[C@H](OC)[C@H](O)[C@@H](C)/C=C(\C)[C@H](OC(N)=O)[C@@H](OC)/C=C\C=C(/C)C(=O)NC(=CC1=O)C2=O	20.3	18.8	20.8	8.75	12.7	13	14	13.3	14.5	0.954	0.911	0.867	0.759	0.663	0.619
COC(=O)[C@@]12OC[C@]34[C@H]([C@@H](O)[C@@H]1O)[C@@]1(C)CC(=O)C(O)=C(C)[C@@H]1C[C@H]3OC(=O)[C@H](OC(=O)CC(C)C)[C@@H]24	14.4	12.2	13.9	15.1	15.9	16.9	17.5	18.1	17.9	0.469	0.475	0.461	0.47	0.397	0.365
C/C(=C\c1csc(C)n1)[C@@H]1C[C@@H]2O[C@]2(C)CCC[C@H](C)[C@H](O)[C@@H](C)C(=O)C(C)(C)[C@@H](O)CC(=O)O1	21.8	21.4	21.2	21.1	20.7	22.7	22.5	23.6	23.9	0.22	0.223	0.284	0.468	0.553	0.521
O=C(O)CSc1cc(NS(=O)(=O)c2ccc(Br)cc2)c2ccccc2c1O	44	35.2	25.1	4.65	5.25	6.44	7.75	8.94	11.1	0.954	0.952	0.961	0.926	0.881	0.694
COc1cc(OC)c2ccccc2c1C=C1C(=O)NC(=S)NC1=O	13.1	12.8	13.6	13.6	16.2	16.1	16.1	18	17.8	0.833	0.687	0.472	0.428	0.377	0.379
CNC(=O)c1cc(Oc2ccc(NC(=O)Nc3ccc(Cl)c(C(F)(F)F)c3)cc2)ccn1	50.1	29.6	15.6	10.7	11.4	10.3	12.4	9.94	10.5	1.02	0.956	0.971	0.978	0.705	0.348
CCOC(=O)C1=C(C)NC(=S)N[C@@H]1c1cccc(O)c1	48.6	50.3	44.1	4.88	4.81	5.49	5.58	4.56	4.64	0.936	0.94	1.01	0.941	0.954	0.999
C[C@@H]1O[C@@H](O[C@H]2[C@H](OC(=O)[C@]34CCC(C)(C)C[C@H]3C3=CC[C@@H]5[C@@]6(C)C[C@H](O)[C@H](O[C@@H]7O[C@H](CO)[C@@H](O)[C@H](O)[C@H]7O)[C@@](C)(CO)[C@@H]6CC[C@@]5(C)[C@]3(C)CC4)O[C@H](CO)[C@@H](O)[C@@H]2O)[C@H](O)[C@H](O)[C@H]1O[C@@H]1OC[C@@H](O)[C@H](O)[C@H]1O	52.4	46.4	51	4.19	4.7	5.42	5.5	6.76	3.23	0.996	0.972	0.947	0.97	0.984	0.999
O=NN(CCCl)C(=O)NC1CCCCC1	46.1	48.4	47.4	3.56	4.22	4.72	4.42	4.76	7.36	0.975	0.937	0.985	0.988	0.963	0.875
O=c1c2ccccc2[se]n1-c1ccccc1	49.5	33.9	22.3	4.12	5.85	11.4	12.8	12.8	18	0.989	0.995	0.973	0.98	0.521	0.312
CC(C)(C)C(=O)OCOc1cccc2c1C(=O)C1C3C=CC(CC3)C1C2=O (stereo not given)	37.6	26.3	20	5.7	6.22	7.75	8.44	12.8	13.5	0.973	0.963	0.986	0.929	0.787	0.554
COc1ccc(/C=C/C(=O)O[C@@H]2[C@H](O[C@@H]3O[C@@H](C)[C@H](O)[C@@H](O)[C@H]3O)[C@@H](O[C@@H]3O[C@@H](C)[C@H](O[C@@H]4OC[C@@H](O[C@@H]5O[C@H](CO)[C@H](O)[C@H](O)[C@H]5O)[C@H](O)[C@H]4O)[C@@H](O)[C@H]3O)[C@H](OC(=O)[C@]34CCC(C)(C)C[C@H]3C3=CC[C@@H]5[C@@]6(C)C[C@H](O)[C@H](O[C@@H]7O[C@H](CO)[C@@H](O)[C@H](O)[C@H]7O)[C@@](C)(C(=O)O)[C@@H]6CC[C@@]5(C)[C@]3(CO)CC4)O[C@@H]2C)cc1	43.7	44.3	14.2	8.17	11.2	12.4	9.11	10.1	37.6	1.07	0.975	0.938	0.66	0.252	0.035

SMILES	AUC of culture confluence over time ([1]; 5 µM)	AUC of culture confluence over time ([1]; 10 µM)	AUC of culture confluence over time ([1]; 20 µM)	cell painting activity score ([2]; 0.625 µM)	cell painting activity score ([2]; 1.25 µM)	cell painting activity score ([2]; 2.5 µM)	cell painting activity score ([2]; 5 µM)	cell painting activity score ([2]; 10 µM)	cell painting activity score ([2]; 20 µM)	relative cell count ([3]; 0.625 µM)	relative cell count ([3]; 1.25 µM)	relative cell count ([3]; 2.5 µM)	relative cell count ([3]; 5 µM)	relative cell count ([3]; 10 µM)	relative cell count ([3]; 20 µM)
C=C1[C@@H](C)[C@H]2[C@H](Cc3ccccc3)NC(=O)[C@]23[C@H](OC(C)=O)/C=C/[C@@](C)(O)C(=O)[C@@H](C)C/C=C/[C@H]3[C@@H]1O	24.3	26	27.2	14.5	15.6	16.1	17.4	18.8	19.2	0.575	0.517	0.557	0.623	0.562	0.494
S=P(N1CC1)(N1CC1)N1CC1	39.2	31	32.9	3.3	3.39	3.97	4.44	5.38	7.45	1.06	0.967	0.939	0.904	0.942	0.856
C[n+]1ccc(-c2cc[n+](CCCCCCCCCC[P+](c3ccccc3)(c3ccccc3)c3ccccc3)cc2)cc1.[I-].[I-].[I-]	45.2	40	37.1	3.81	4.65	5.16	5.04	3.72	4.7	0.908	0.96	1	1.01	0.965	0.969
CN(N=O)C(=O)N[C@@H]1[C@@H](O)[C@H](O)[C@@H](CO)O[C@@H]1O	48.1	46.7	48.1	12.4	14.8	14.4	13.9	10.4	10.8	1.04	0.929	0.893	0.893	0.88	0.851
O=NN(CCCl)C(=O)NCCCl	44.8	47.8	42.3	4.49	4.2	5.44	4.8	6.45	8.52	1.01	0.934	0.932	0.946	0.929	0.856
O=C(O)C1=CC(=C(c2ccc(O)c(C(=O)O)c2)c2ccc(O)c(C(=O)O)c2)C=CC1=O	54.3	48.2	54	3.58	3.35	3.92	4.33	5.68	5.78	0.992	0.98	0.986	0.968	0.965	0.954
CC(C)(C)C(=O)OCOc1cccc2ccccc12	45.5	44.2	46.3	4.69	4.3	6.34	5.83	8.37	7.3	1.01	0.983	0.997	0.97	0.974	1.01
N[C@@H](Cc1ccc(N(CCCl)CCCl)cc1)C(=O)O	34.2	33.1	30.4	3.56	5.26	5.71	6.03	8.71	9.32	0.959	0.939	0.879	0.883	0.733	0.723
CCC(=O)CCCCC[C@@H]1NC(=O)[C@H]2CCCCN2C(=O)[C@H]([C@@H](C)CC)NC(=O)[C@H](Cc2cn(OC)c3ccccc23)NC1=O	22.3	21.7	19.6	16.3	16	16.4	16	13.2	13.1	0.946	0.821	0.617	0.59	0.617	0.553
COc1cc(=O)oc(/C=C/C=C/C=C/C(C)=C/[C@]2(C)O[C@H](C)[C@](C)(O)[C@H]2O)c1C	34.4	30.9	27.2	4.29	4.47	6.44	11.5	12.8	12.1	0.993	0.982	0.972	0.928	0.826	0.758
Cc1ccc(C(=O)N(CCCN)[C@@H](c2nc3cc(Cl)ccc3c(=O)n2Cc2ccccc2)C(C)C)cc1	18.6	21.1	9.6	11.9	10.6	13.1	13.9	28.6	17.6	0.22	0.209	0.227	0.225	0.0173	0.0529
O=C(O)CCCc1ccc(N(CCCl)CCCl)cc1	50.2	44.6	36.8	4.38	5.9	8	10.4	10.8	12.6	0.967	0.951	0.908	0.881	0.837	0.784
O=C1c2ccccc2[Se](=O)N1c1ccccc1 (stereo not given)	31.5	18.8	18.2	5.57	10.4	15.8	17	15.8	13.8	0.985	0.943	0.991	0.954	0.805	0.111
O=C(c1ccc(/C=C/c2n[nH]c3ccccc23)cc1)N1CCNCC1	28.9	32.6	26.8	9.05	12	17.9	19.2	18.8	18.8	1.02	0.914	0.649	0.572	0.532	0.526
Oc1ccc(/C=C/c2cc(O)cc(O)c2)cc1	49	46.4	42.5	–	–	–	–	–	–	–	–	–	–	–	–
COc1ccc2cc1Oc1ccc(cc1)C[C@H]1c3cc(c(OC)cc3CCN1C)Oc1c(OC)c(OC)cc3c1[C@H](C2)N(C)CC3	–	–	–	5.28	5.79	5.97	16.8	28.3	14.8	1.08	1.06	1.04	1.07	0.973	0.322
CC(C)C[C@@H](C=O)NC(=O)[C@H](CC(C)C)NC(=O)[C@H](CC(C)C)NC(=O)OCc1ccccc1	–	–	–	5.55	9.38	15.5	15.7	16	17.7	0.974	0.824	0.479	0.226	0.124	0.103
